Laboratory results reported in BindingDB's records for patent US20240132491 (Medshine Discovery, 2024).

Target: Programmed cell death 1 ligand/protein 1 (Homo sapiens, UniProt Q9NZQ7)
Assay: PD-L1 Binding Assay
Description: Experimental Materials:PD1:PD-L1 TR-FRET assay kit, purchased from BPS Biosciences. Nivo multimode microplate reader (PerkinElmer)Experimental Method:PD1-Eu, dye-labeled acceptor, PD-L1-biotin, and compound to be tested were all diluted using the buffer in the kit.The compound to be tested was diluted 5-fold to the 8th concentration, i.e., from 4 μM to 0.05 nM, and the DMSO concentration was 4%. The experiment was set up in duplicate wells. 5 μL of each concentration gradient of the compound to be tested was added to a microtiter plate, wherein 5 μL of a buffer containing 4% DMSO and 5 μL of PD-L1-biotin (60 nM) was added to the Max signal well, and only 5 μL of buffer was added to the Min signal well. The plate was incubated at 25° C. for 20 minutes. After the incubation, 5 μL of diluted PD1-Eu (10 nM) and 5 μL of diluted dye-labeled acceptor were added to each well. The system was reacted at 25° C. for 90 minutes. After the reaction, the multimode microplate reader was used to read the time-resolved fluorescence analysis signal.

Sequence of Programmed cell death 1 ligand/protein 1 (Q9NZQ7 whole entry): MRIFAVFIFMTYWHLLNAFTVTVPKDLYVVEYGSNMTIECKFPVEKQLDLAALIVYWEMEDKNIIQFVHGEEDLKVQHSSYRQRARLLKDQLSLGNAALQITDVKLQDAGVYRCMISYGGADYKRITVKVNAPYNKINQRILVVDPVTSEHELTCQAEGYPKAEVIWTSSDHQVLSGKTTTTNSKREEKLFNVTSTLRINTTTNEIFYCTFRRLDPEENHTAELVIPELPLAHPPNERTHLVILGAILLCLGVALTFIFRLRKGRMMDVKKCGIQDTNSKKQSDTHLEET
Sequence of Programmed cell death 1 ligand/protein 1 (Q15116 whole entry, further chain): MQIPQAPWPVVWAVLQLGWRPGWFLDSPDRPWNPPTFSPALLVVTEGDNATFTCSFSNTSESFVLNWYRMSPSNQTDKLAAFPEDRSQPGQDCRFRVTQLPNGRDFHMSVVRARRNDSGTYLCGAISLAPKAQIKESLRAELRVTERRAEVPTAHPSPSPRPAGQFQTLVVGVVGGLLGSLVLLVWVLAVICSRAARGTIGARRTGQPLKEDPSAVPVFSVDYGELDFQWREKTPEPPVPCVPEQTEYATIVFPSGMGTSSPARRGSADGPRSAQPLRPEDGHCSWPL

Question: With `COc1nc(-c2cccc(-c3cccc4c3CCN4c3nccc4cc(CN5CC[C@@H](O)C5)cnc34)c2Cl)ccc1CNC[C@@H]1CCC(=O)N1` [US20240132491, Example 1] as the molecule, how does the IC50 read?
Answer: 1.95 nM
